Assay results reported in patent US20060148858A1, “1, 2-Azole derivatives with hypoglycemic and hypolipidemic activity” (priority 2002, published 2006).
pEC50: −log10 of the molar value.

Experiments:
PPARγ-RXRα heterodimer = molecular target: T1, PPARγ-RXRα heterodimer (Homo sapiens, UniProt P37231); test: PPARγ-RXRα heterodimer ligand activity, luciferase reporter in PPARγ:RXRα:4ERPP/CHO-K1 cells (Test Example 3); format: cell-based; settings: 18-48 hours, concentration for 50% of the maximum fold induction
T1 construct: expressed in transfected cells; host or cells: CHO-K1
T1 sequence (P37231 1-477 isoform P37231-2): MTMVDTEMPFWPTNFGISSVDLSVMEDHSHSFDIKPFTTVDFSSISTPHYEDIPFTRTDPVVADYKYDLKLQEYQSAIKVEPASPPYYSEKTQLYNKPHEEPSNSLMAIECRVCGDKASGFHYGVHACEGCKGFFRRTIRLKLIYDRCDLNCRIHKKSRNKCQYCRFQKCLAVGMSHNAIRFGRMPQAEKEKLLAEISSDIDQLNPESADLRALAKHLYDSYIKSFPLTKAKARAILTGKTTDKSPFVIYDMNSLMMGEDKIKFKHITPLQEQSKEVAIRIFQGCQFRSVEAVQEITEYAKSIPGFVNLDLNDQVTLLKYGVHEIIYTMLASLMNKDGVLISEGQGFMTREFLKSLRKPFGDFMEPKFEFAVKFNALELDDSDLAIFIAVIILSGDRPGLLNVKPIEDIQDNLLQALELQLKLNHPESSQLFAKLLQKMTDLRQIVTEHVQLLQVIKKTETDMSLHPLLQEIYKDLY
T1 sequence (P19793 1-462 partner): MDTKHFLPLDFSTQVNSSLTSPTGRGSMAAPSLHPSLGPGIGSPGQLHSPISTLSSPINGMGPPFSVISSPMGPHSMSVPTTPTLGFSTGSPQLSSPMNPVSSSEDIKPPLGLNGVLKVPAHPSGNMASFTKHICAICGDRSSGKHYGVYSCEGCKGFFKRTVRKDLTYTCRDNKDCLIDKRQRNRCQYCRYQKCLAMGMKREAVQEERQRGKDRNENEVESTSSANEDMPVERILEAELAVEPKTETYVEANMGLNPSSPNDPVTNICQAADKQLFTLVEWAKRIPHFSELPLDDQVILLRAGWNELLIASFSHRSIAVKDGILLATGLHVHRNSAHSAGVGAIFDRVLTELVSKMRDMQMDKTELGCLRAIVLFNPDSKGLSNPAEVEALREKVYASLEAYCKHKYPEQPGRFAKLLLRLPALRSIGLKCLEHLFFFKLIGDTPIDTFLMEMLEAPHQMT
In short: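 Stable CHO-K1 line co-expressing hPPARγ/RXR with 4ERPP-TK luciferase reporter, 2×10^4 cells per well, treated 18-48 h at 37° C. in HAM F12 with 0.1% fatty acid-free BSA. Luciferase fold induction versus untreated taken as 1; EC50 is concentration giving 50% of maximal fold induction.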

| SMILES | pEC50 (PPARγ-RXRα heterodimer) | melting point [°C] |
| --- | --- | --- |
| CC(C)c1nn(-c2ccc(C(F)(F)F)cn2)cc1CCCOc1cc(CCC(=O)O)n(-c2ccccc2)n1 [Example 24, 3-[3-(3-{3-isopropyl-1-[5-(trifluoromethyl)-2-pyridyl]-1H-pyrazol-4-yl}propoxy)-1-phenyl-1H-pyrazol-5-yl]propionic acid] | 7.42 | 139 to 140 |
| CCOc1nn(-c2ccc(C(F)(F)F)cn2)cc1CCCOc1cccc(CC(=O)O)c1 [Example 30, [3-(3-{3-ethoxy-1-[5-(trifluoromethyl)-2-pyridyl]-1H-pyrazol-4-yl}propoxy)phenyl]acetic acid] | 6.68 | 134 to 135 |
| CCOc1nn(-c2ccc(C(F)(F)F)cn2)cc1CCCOc1ccccc1CC(=O)O [Example 31, (2-(3-{3-ethoxy-1-[5-(trifluoromethyl)-2-pyridyl]-1H-pyrazol-4-yl}propoxy)phenyl]acetic acid] | 7.46 | 83 to 84 |
| CCCc1nn(-c2ccc(C(F)(F)F)cn2)cc1CCCOc1cc(CCC(=O)O)n(-c2ccccc2)n1 [Example 43, 3-[1-phenyl-3-(3-{3-propyl-1-[5-(trifluoromethyl)-2-pyridyl]-1H-pyrazol-4-yl}propoxy)-1H-pyrazol-5-yl]propionic acid] | 7.28 | 149 to 150 |
| CCCc1nn(-c2ccc(C(F)(F)F)cn2)cc1CCCCOc1cc(CCC(=O)O)n(-c2ccccc2)n1 [Example 58, 3-[1-phenyl-3-(4-{3-propyl-1-[5-(trifluoromethyl)-2-pyridinyl]-1H-pyrazol-4-yl}butoxy)-1H-pyrazol-5-yl]propanoic acid] | 7.37 | 123 to 124 |
| CCCc1nn(-c2ccc(C(F)(F)F)cn2)cc1CCCOc1ccc(CCC(=O)O)c(OCC)c1 [Example 98, 3-[2-ethoxy-4-(3-{3-propyl-1-[5-(trifluoromethyl)-2-pyridinyl]-1H-pyrazol-4-yl}propoxy)phenyl]propanoic acid] | 6.96 | 119 to 120 |
| CCOc1nn(-c2ccc(C(F)(F)F)cn2)cc1CCCCOc1cc(CCC(=O)O)n(-c2ccccc2)n1 [Example 104, 3-[3-(4-{3-ethoxy-1-[5-(trifluoromethyl)-2-pyridinyl]-1H-pyrazol-4-yl}butoxy)-1-phenyl-1H-pyrazol-5-yl]propanoic acid] | 7.47 | 138 to 139 |
| CCOc1nn(-c2ccc(C(F)(F)F)cn2)cc1CCCOc1ccc(CCC(=O)O)c(OC(C)C)c1 [Example 116, 3-[4-(3-{3-ethoxy-1-[5-(trifluoromethyl)-2-pyridinyl]-1H-pyrazol-4-yl}propoxy)-2-isopropoxyphenyl]propanoic acid] | 7.09 | 104 to 105 |
| O=C(O)CCc1cc(OCCCc2cn(-c3ccc(C(F)(F)F)cn3)nc2-c2ccccc2)nn1-c1ccccc1 [Example 125, 3-[1-phenyl-3-(3-{3-phenyl-1-[5-(trifluoromethyl)-2-pyridyl]-1H-pyrazol-4-yl}propoxy)-1H-pyrazol-5-yl]propionic acid] | 7.59 | 175 to 176 |
| CCOc1nn(-c2ccc(C(F)(F)F)cn2)cc1CCCCOc1ccccc1CC(=O)O [Example 137, [2-(4-{3-ethoxy-1-[5-(trifluoromethyl)-2-pyridyl]-1H-pyrazol-4-yl}butoxy)phenyl]acetic acid] | 7.46 | 109 to 110 |
| COc1cccc(CC(=O)O)c1OCCCc1cn(-c2ccc(C(F)(F)F)cn2)nc1C(C)C [Example 181, [2-(3-{3-isopropyl-1-[5-(trifluoromethyl)-2-pyridyl]-1H-pyrazol-4-yl}propoxy)-3-methoxyphenyl]acetic acid] | 7.12 | 142 to 143 |
| CCOc1ccc(CC(=O)O)cc1OCCCc1cn(-c2ccc(C(F)(F)F)cn2)nc1C1CCCCC1 [Example 201, [3-(3-{3-cyclohexyl-1-[5-(trifluoromethyl)-2-pyridyl]-1H-pyrazol-4-yl}propoxy)-4-ethoxyphenyl]acetic acid] | 7.20 | 134 to 135 |
| CCC(CC)c1nn(-c2ccc(Cl)cn2)cc1CCCOc1c(CC(=O)O)cccc1OC [Example 223, (2-{3-[1-(5-chloro-2-pyridyl)-3-(1-ethylpropyl)-1H-pyrazol-4-yl]propoxy}-3-methoxyphenyl)acetic acid] | 7.62 | 85 to 86 |
| COc1cccc(CC(=O)O)c1OCCCc1cn(-c2ccc(C(F)(F)F)nn2)nc1C(C)C [Example 274, [2-(3-{3-isopropyl-1-[6-(trifluoromethyl)pyridazin-3-yl]-1H-pyrazol-4-yl}propoxy)-3-methoxyphenyl]acetic acid] | 7.09 | 92 to 93 |
| COc1ccc(CC(=O)O)cc1OCCCc1cn(-c2ccc(C(F)(F)F)cn2)nc1C1CCCCC1 [Example 304, [3-(3-{3-cyclohexyl-1-[5-(trifluoromethyl)-2-pyridinyl]-1H-pyrazol-4-yl}propoxy)-4-methoxyphenyl]acetic acid] | 7.40 | 117 to 118 |
| COc1cccc(CC(=O)O)c1OCCCc1cn(-c2ccc(Cl)cn2)nc1C(C)C [Example 311, (2-{3-[1-(5-chloro-2-pyridinyl)-3-isopropyl-1H-pyrazol-4-yl]propoxy}-3-methoxyphenyl)acetic acid] | 7.00 | 148 to 149 |
| CCCc1nn(-c2ccc(C(F)(F)F)cn2)cc1CCCOc1c(C)cccc1CC(=O)O [Example 319, [3-methyl-2-(3-{3-propyl-1-[5-(trifluoromethyl)-2-pyridinyl]-1H-pyrazol-4-yl}propoxy)phenyl]acetic acid] | 7.59 | 134 to 135 |

Now those with a higher pEC50 (PPARγ-RXRα heterodimer), led by results:

| pEC50 (PPARγ-RXRα heterodimer) | melting point [°C] | SMILES |
| --- | --- | --- |
| 7.72 | 121 to 122 | CCOc1nn(-c2ccc(C(F)(F)F)cn2)cc1CCCOc1cc(CCC(=O)O)n(-c2ccccc2)n1 [Example 42, 3-[3-(3-{3-ethoxy-1-[5-(trifluoromethyl)-2-pyridyl]-1H-pyrazol-4-yl}propoxy)-1-phenyl-1H-pyrazol-5-yl]propionic acid] |
| 7.85 | 182 to 183 | O=C(O)CCc1cc(OCCCc2cn(-c3ccc(C(F)(F)F)cn3)nc2C2CCCCC2)nn1-c1ccccc1 [Example 189, 3-[3-(3-{3-cyclohexyl-1-[5-(trifluoromethyl)-2-pyridyl]-1H-pyrazol-4-yl}propoxy)-1-phenyl-1H-pyrazol-5-yl]propionic acid] |
| 7.89 | 100 to 101 | CCC(CC)c1nn(-c2ccc(C(F)(F)F)cn2)cc1CCCOc1c(CC(=O)O)cccc1OC [Example 212, [2-(3-{3-(1-ethylpropyl)-1-[5-(trifluoromethyl)-2-pyridyl]-1H-pyrazol-4-yl}propoxy)-3-methoxyphenyl]acetic acid] |
| 8.11 | 125 to 126 | CCC(CC)c1nn(-c2ccc(C(F)(F)F)cn2)cc1CCCOc1c(C)cccc1CC(=O)O [Example 213, [2-(3-{3-(1-ethylpropyl)-1-[5-(trifluoromethyl)-2-pyridyl]-1H-pyrazol-4-yl}propoxy)-3-methylphenyl]acetic acid] |
| 7.66 | 155 to 156 | CCc1cccc(CC(=O)O)c1OCCCc1cn(-c2ccc(C(F)(F)F)cn2)nc1C(C)C [Example 227, [3-ethyl-2-(3-{3-isopropyl-1-[5-(trifluoromethyl)-2-pyridinyl]-1H-pyrazol-4-yl}propoxy)phenyl]acetic acid] |
| 7.77 | 145 to 146 | CCCc1nn(-c2ccc(C(F)(F)F)cn2)cc1CCCOc1c(Br)cccc1CC(=O)O [Example 237, [3-bromo-2-(3-{3-propyl-1-[5-(trifluoromethyl)-2-pyridinyl]-1H-pyrazol-4-yl}propoxy)phenyl]acetic acid] |
| 7.72 | 126 to 127 | CCc1cccc(CC(=O)O)c1OCCCc1cn(-c2ccc(C(F)(F)F)nn2)nc1C(C)C [Example 245, [3-ethyl-2-(3-{3-isopropyl-1-[6-(trifluoromethyl)pyridazin-3-yl]-1H-pyrazol-4-yl}propoxy)phenyl]acetic acid] |
| 8.42 | 184 to 185 | Cc1cccc(CC(=O)O)c1OCCCc1cn(-c2ccc(C(F)(F)F)cn2)nc1C1CCCCC1 [Example 316, [2-(3-{3-cyclohexyl-1-[5-(trifluoromethyl)-2-pyridinyl]-1H-pyrazol-4-yl}propoxy)-3-methylphenyl]acetic acid] |
